Assay results from article PMC2767256 (Biochemical pharmacology, 2009).

Experiments:
Format in all cases: biochemical
[1] = molecular target: SULT1A3 (Homo sapiens, UniProt P0DMM9); assay: inhibition of dopamine sulfation with […]PAPS in BeWo cytosol
[2] = molecular target: SULT1A1 (Homo sapiens, UniProt P50225); assay: inhibition of 4-nitrophenol sulfation with […]PAPS in BeWo cytosol
[3] = molecular target: T1, SULT2A1 (Homo sapiens, UniProt Q06520); assay: sulfation of [3H]DHEA
T1 sequence (Q06520 1-285): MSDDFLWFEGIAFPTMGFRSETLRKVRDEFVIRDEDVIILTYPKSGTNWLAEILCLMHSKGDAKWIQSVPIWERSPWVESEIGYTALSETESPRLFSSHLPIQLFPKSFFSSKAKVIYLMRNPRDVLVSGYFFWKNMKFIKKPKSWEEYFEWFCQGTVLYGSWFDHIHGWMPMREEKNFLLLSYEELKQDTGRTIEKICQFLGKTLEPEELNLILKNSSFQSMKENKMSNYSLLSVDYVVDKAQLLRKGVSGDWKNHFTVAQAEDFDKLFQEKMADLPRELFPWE

SULT1A3, sequence (P0DMM9 whole entry): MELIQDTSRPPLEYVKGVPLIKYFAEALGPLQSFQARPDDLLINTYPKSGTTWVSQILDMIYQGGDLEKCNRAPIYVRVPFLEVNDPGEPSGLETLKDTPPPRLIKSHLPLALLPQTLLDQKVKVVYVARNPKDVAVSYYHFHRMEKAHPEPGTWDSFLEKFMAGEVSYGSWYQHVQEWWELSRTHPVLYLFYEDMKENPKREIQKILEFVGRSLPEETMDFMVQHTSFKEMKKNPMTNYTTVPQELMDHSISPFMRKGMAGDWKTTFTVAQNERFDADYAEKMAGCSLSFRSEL
SULT1A1, sequence (P50225 whole entry): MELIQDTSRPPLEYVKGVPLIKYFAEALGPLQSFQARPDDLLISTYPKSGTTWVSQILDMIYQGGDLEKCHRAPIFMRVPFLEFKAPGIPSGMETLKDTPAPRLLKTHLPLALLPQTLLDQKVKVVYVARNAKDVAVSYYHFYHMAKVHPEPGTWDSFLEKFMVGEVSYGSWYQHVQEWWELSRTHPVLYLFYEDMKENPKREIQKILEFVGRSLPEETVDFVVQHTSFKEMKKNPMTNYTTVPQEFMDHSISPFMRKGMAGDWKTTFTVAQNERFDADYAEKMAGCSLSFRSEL

SMILES	IC50 [1] [µM]	IC50 [2] [µM]	sulfation of [3H]DHEA (3 and 10 μM) by purified SULT2A1 [3]
O=[N+]([O-])c1cc(Cl)c(O)c(Cl)c1 [DCNP, 2,6-dichloro-4-nitrophenol]	830	0.052	–
C[C@]12CC[C@H](O)CC1=CC[C@@H]1[C@@H]2CC[C@]2(C)C(=O)CC[C@@H]12 [DHEA, dehydroepiandrosterone]	–	–	Under the same assay conditions, purified SULT2A1 readily sulfated DHEA
